“Also recorded” adds a separate entry of the source.

T1 sequence (Q9HC29 whole entry): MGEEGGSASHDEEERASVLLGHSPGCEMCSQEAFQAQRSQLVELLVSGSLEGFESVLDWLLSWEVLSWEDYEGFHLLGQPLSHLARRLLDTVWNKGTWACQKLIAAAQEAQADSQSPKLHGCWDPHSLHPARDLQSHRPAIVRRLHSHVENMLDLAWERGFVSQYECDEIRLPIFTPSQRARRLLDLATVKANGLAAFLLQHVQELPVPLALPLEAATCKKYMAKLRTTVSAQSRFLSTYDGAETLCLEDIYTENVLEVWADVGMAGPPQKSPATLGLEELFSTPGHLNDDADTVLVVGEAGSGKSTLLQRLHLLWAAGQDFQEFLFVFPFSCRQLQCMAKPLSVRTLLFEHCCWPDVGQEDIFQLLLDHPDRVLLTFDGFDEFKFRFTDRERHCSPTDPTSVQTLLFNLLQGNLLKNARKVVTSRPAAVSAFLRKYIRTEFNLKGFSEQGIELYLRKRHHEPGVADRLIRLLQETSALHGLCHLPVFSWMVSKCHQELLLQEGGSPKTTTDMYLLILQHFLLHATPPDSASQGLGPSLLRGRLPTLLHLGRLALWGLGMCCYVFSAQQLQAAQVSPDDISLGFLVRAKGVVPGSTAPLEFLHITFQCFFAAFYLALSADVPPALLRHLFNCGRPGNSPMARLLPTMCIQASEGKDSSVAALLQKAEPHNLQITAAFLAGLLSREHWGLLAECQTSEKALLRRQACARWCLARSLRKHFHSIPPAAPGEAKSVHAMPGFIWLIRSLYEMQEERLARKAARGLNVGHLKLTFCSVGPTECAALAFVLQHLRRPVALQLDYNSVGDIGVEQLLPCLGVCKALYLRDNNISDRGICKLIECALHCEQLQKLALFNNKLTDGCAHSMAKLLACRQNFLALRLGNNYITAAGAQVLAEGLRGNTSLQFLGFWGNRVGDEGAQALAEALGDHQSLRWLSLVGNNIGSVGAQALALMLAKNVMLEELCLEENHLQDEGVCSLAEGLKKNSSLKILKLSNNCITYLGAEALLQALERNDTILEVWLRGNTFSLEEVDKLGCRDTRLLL

The first test addresses T1, human NOD2 (Homo sapiens, UniProt Q9HC29).
T1 construct: host or cells: HEK293
The test is described as follows: human NOD2 specific reporter gene assay (NF-κB induction). The class given is cell-based. Particulars: human NOD2 reporter gene assay. The protocol:
Example 5: High-throughput screens in porcine blood: Curated compound collections were obtained from the Institute for Therapeutics Discovery & Development at the University of Minnesota. Compound transfers from source (80 nL of 10 mM stocks) to assay plates were performed using an Echo 550 acoustic liquid handler (Labcyte, Sunnyvale, Calif.). For most libraries, a target final concentration of 10 μM of compound (in a final volume of 80 μL for the assay described below) was achieved. Compound plates were hermetically sealed and stored at −80° C. until used. Fresh, heparin-anticoagulated porcine blood from healthy animals were obtained under USDA supervision from Midwest Research Swine, LLC (Glencoe, Minn.). 80 μL of hematocrit-enriched porcine blood (low-speed centrifugation, followed by resuspension in DMEM supplemented with 10% fetal bovine serum) was added to compound plates and incubated for 15 h. The following day, the plates were briefly centrifuged (100 g, 10 min), and supernatants were transferred using an automated ViaFlow 384 transfer device (Integra Biosciences Corp., Hudson, N.H.) to assay plates containing of 10^6 cells/mL of each of the following NF-κB/secreted alkaline phosphatase reporter cells suspended in HEK-Blue Detection Media: human IFN-α/β, human IFN-γ, human TNF-α/IL-1β (InvivoGen, San Diego, Calif.). NF-κB translocation was assayed spectrophotometrically using an alkaline phosphatase-specific chromogen (present in HEK-detection medium as supplied by InvivoGen) at 620 nm using a SpectraMax M4 multimode microplate reader (Molecular Devices, Sunnyvale, Calif.). Z′ factors were computed for each TLR/NOD-specific signals. Hits were defined as signals >4σ (in-plate standard deviations for test compounds above negative control means), were deconvoluted in full dose-response assays in human TLR-2/-3/-4/-5/-7/-8/-9 and NOD-1/NOD-2-specific reporter cells in liquid handler-assisted assay formats as described previously. Example 6: Murine knockout cell-lines: The following reagents were obtained through BEI Resources, NIAID, NIH: the microglial cell line derived from MAL/MyD88 double knockout Mice (NR-9904), and the macrophage cell line derived from TRIF/TRAM knockout mice (NR-9568). Example 7: Human NOD1/2-specific reporter gene assays (NF-κB induction), and TLR-2/-3/-4/-5/-7/-8/-9/STING/ISG counter-screens: The induction of NF-κB was quantified using human TLR-2/-3/-4/-5/-7/-8/-9/NOD-1/NOD-2/STING/ISG-specific, rapid-throughput, liquid handler-assisted reporter gene assays as previously described by us (Wu, W. et al. J. Med. Chem. 2010, 53, 3198-3213; Shukla, N. M. et al. J. Med. Chem. 2010, 53, 4450-4465; Agnihotri, G. et al. J. Med. Chem. 2011, 54, 1490-1510 and Ukani, R. et al. Bioorg. Med. Chem. Lett. 2012, 22, 293-295). HEK293 cells stably co-transfected with the appropriate hTLR and secreted alkaline phosphatase (sAP) were maintained in HEK-Blue™ Selection medium. Stable expression of secreted alkaline phosphatase (sAP) under control of NF-κB/AP-1/IRF promoters is inducible by appropriate innate immune stimuli, and extracellular sAP in the supernatant is proportional to NF-κB/IRF induction. Reporter cells were incubated at a density of ˜10^5 cells/ml in a volume of 80 μl/well, in 384-well, flat-bottomed, cell culture-treated microtiter plates in the presence of graded concentrations of stimuli. sAP was assayed spectrophotometrically using an alkaline phosphatase-specific chromogen (present in HEK-detection medium as supplied by InvivoGen) at 620 nm. Example 8: Multiplexed immunoassays for human cytokines: Fresh human peripheral blood mononuclear cells (hPBMC) were isolated from human blood obtained by venipuncture in Cell Preparation Tubes (CPT, Beckton-Dickinson) with informed consent and as per guidelines approved by the University of Minnesota Human Subjects Experimentation Committee. Aliquots of PBMCs or THP-1 cells (10^5 cells in 100 μL/well) were stimulated for 16 h with graded concentrations of test compounds. […]
In general terms: A reporter such as luciferase makes a cellular process visible.
For the molecule `NC(=O)c1cc(-n2cnc3ccccc32)cs1` [Compound 2a, 4-(1H-Benzo[d]imidazol-1-yl)thiophene-2-carboxamide], the “hNOD2-agonistic activity (in words)” value is given as “Weak hNOD2-agonistic activity”.
For the molecule `NNC(=O)c1cc(-n2cnc3ccccc32)cs1` [Compound 2b, 4-(1H-Benzo[d]imidazol-1-yl)thiophene-2-carbohydrazide], the “hNOD2-agonistic activity (in words)” value was “inactive”.
The same measure, in the same setting: the result for `O=C(NO)c1cc(-n2cnc3ccccc32)cs1` [Compound 2c, 4-(1H-Benzo[d]imidazol-1-yl)-N-hydroxythiophene-2-carboxamide] reads “inactive”; that for `CNC(=O)c1cc(-n2cnc3ccccc32)cs1` [Compound 2d, 4-(1H-Benzo[d]imidazol-1-yl)-N-methylthiophene-2-carboxamide], “inactive”.
Still for that read-out and setting: then `CCCCNC(=O)c1cc(-n2cnc3ccccc32)cs1` [Compound 2e, 4-(1H-Benzo[d]imidazol-1-yl)-N-butylthiophene-2-carboxamide], with “inactive”; and `O=C(Nc1ccccc1)c1cc(-n2cnc3ccccc32)cs1` [Compound 2f, 4-(1H-Benzo[d]imidazol-1-yl)-N-phenylthiophene-2-carboxamide], with “inactive”; and `O=C(NCc1ccccc1)c1cc(-n2cnc3ccccc32)cs1` [Compound 2g, 4-(1H-Benzo[d]imidazol-1-yl)-N-benzylthiophene-2-carboxamide], with “inactive”.
Still for that read-out and setting: then `O=C(NNc1ccccc1)c1cc(-n2cnc3ccccc32)cs1` [Compound 2h, 4-(1H-Benzo[d]imidazol-1-yl)-N′-phenylthiophene-2-carbohydrazide], with “inactive”.
As to `O=C(Nc1ccncc1)c1cc(-n2cnc3ccccc32)cs1` [Compound 2i, 4-(1H-Benzo[d]imidazol-1-yl)-N-(pyridin-4-yl)thiophene-2-carboxamide], the “hNOD2-agonistic activity (in words)” value is “inactive”.
On the same count and under the same terms, the result for `NCc1ccc(NC(=O)c2cc(-n3cnc4ccccc43)cs2)cc1` [Compound 2n, N-(4-(Aminomethyl)phenyl)-4-(1H-benzo[d]imidazol-1-yl)thiophene-2-carboxamide] reads “inactive”; that for `NC(=O)c1cscc1-n1cnc2ccccc21` [Compound 3b, 4-(1H-Benzo[d]imidazol-1-yl)thiophene-3-carboxamide], “inactive”.
The same measure, in the same setting: then `NC(=O)c1sccc1-n1cnc2ccccc21` [Compound 3c, 3-(1H-Benzo[d]imidazol-1-yl)thiophene-2-carboxamide], with “inactive”; and `NC(=O)c1cc(-n2cnc3ccccc32)c[nH]1` [Compound 3d, 4-(1H-Benzo[d]imidazol-1-yl)-1H-pyrrole-2-carboxamide], with “devoid of activity”; and `NC(=O)c1coc(-n2cnc3ccccc32)n1` [Compound 3e, 2-(1H-Benzo[d]imidazol-1-yl)oxazole-4-carboxamide], with “devoid of activity”.
Still for that read-out and setting: then `NC(=O)c1nc(-n2cnc3ccccc32)cs1` [Compound 3f, 4-(1H-Benzo[d]imidazol-1-yl)thiazole-2-carboxamide], with “inactive; also recorded: devoid of activity”; and `NC(=O)c1csc(-n2cnc3ccccc32)n1` [Compound 3h, 2-(1H-Benzo[d]imidazol-1-yl)thiazole-4-carboxamide], with “devoid of activity”.
As to `NC(=O)c1cnc(-n2cnc3ccccc32)s1` [Compound 3i, 2-(1H-Benzo[d]imidazol-1-yl)thiazole-5-carboxamide], the “hNOD2-agonistic activity (in words)” value is given as “devoid of activity”.
Same read-out and setting: then `NC(=O)c1ccc(-n2cnc3ccccc32)cc1` [Compound 3j, 4-(1H-Benzo[d]imidazol-1-yl)benzamide], with “devoid of activity”; and `NC(=O)c1cccc(-n2cnc3ccccc32)c1` [Compound 3k, 3-(1H-Benzo[d]imidazol-1-yl)benzamide], with “devoid of activity”; and `NC(=O)c1cncc(-n2cnc3ccccc32)c1` [Compound 3l, 5-(1H-Benzo[d]imidazol-1-yl)nicotinamide], with “devoid of activity”.
The same measure, in the same setting: the result for `N#Cc1cc(-n2cnc3ccccc32)cs1` [Compound 4a, 4-(1H-Benzo[d]imidazol-1-yl)thiophene-2-carbonitrile] reads “inactive”.
Still for that read-out and setting: then `N=C(NO)c1cc(-n2cnc3ccccc32)cs1` [Compound 4b, 4-(1H-Benzo[d]imidazol-1-yl)-N-hydroxythiophene-2-carboximidamide], with “inactive”; and `Cc1nc2ccccc2n1-c1csc(C(N)=O)c1` [Compound 7a, 4-(2-Methyl-1H-benzo[d]imidazol-1-yl)thiophene-2-carboxamide], with “lower potency than the hit compound”.
Turning to `CCc1nc2ccccc2n1-c1csc(C(N)=O)c1` [Compound 7b, 4-(2-Ethyl-1H-benzo[d]imidazol-1-yl)thiophene-2-carboxamide], the “hNOD2-agonistic activity (in words)” value is listed as “lower potency than the hit compound”.
Still for that read-out and setting: the result for `CCCc1nc2ccccc2n1-c1csc(C(N)=O)c1` [Compound 7c, 4-(2-Propyl-1H-benzo[d]imidazol-1-yl)thiophene-2-carboxamide] reads “lower potency than the hit compound”; that for `CCCCCCCCCCCCCc1nc2ccccc2n1-c1csc(C(N)=O)c1` [Compound 7j, 4-(2-Tridecyl-1H-benzo[d]imidazol-1-yl)thiophene-2-carboxamide], “inactive”.
Still for that read-out and setting: the result for `CC(C)CCc1nc2ccccc2n1-c1csc(C(N)=O)c1` [Compound 7m, 4-(2-Isopentyl-1H-benzo[d]imidazol-1-yl)thiophene-2-carboxamide] reads “potencies very similar to the butyl analogue (7d)”; that for `C=C(C)CCc1nc2ccccc2n1-c1csc(C(N)=O)c1` [Compound 7n, 4-(2-(3-Methylbut-3-en-1-yl)-1H-benzo[d]imidazol-1-yl)thiophene-2-carboxamide], “potencies very similar to the butyl analogue (7d)”.

Still in this test, the particulars now being: human NOD2 reporter gene assay; read-out: EC50 values, human NOD2 agonistic potency.
Consider `NC(=O)c1cc(-n2cnc3ccccc32)cs1` [Compound 2a, 4-(1H-Benzo[d]imidazol-1-yl)thiophene-2-carboxamide], for which the EC50 (in general, the midpoint of the concentration-response curve) turned out to be 7.26 µM.

The test is the same for the next values; noted with them: human NOD2 specific reporter gene assay; arithmetic mean of quadruplicate samples; NA* indicates inactive under the tested conditions; read-out: hNOD2 Agonistic Activity (μM), EC50.
Turning to `Cc1nc2ccccc2n1-c1csc(C(N)=O)c1` [Compound 7a, 4-(2-Methyl-1H-benzo[d]imidazol-1-yl)thiophene-2-carboxamide], the EC50 stood at 15.7 µM.
Still for that read-out and setting: then `CCc1nc2ccccc2n1-c1csc(C(N)=O)c1` [Compound 7b, 4-(2-Ethyl-1H-benzo[d]imidazol-1-yl)thiophene-2-carboxamide], with 13.2 µM; and `CCCc1nc2ccccc2n1-c1csc(C(N)=O)c1` [Compound 7c, 4-(2-Propyl-1H-benzo[d]imidazol-1-yl)thiophene-2-carboxamide], with 8.26 µM; and `CCCCc1nc2ccccc2n1-c1csc(C(N)=O)c1` [Compound 7d, 4-(2-Butyl-1H-benzo[d]imidazol-1-yl)thiophene-2-carboxamide], with 2.07 µM.
The same measure, in the same setting: then `CCCCCCCCc1nc2ccccc2n1-c1csc(C(N)=O)c1` [Compound 7g, 4-(2-Octyl-1H-benzo[d]imidazol-1-yl)thiophene-2-carboxamide], with 2.2 µM; and `CCCCCCCCCc1nc2ccccc2n1-c1csc(C(N)=O)c1` [Compound 7h, 4-(2-Nonyl-1H-benzo[d]imidazol-1-yl)thiophene-2-carboxamide], with 3.06 µM; and `CCCCCCCCCCCc1nc2ccccc2n1-c1csc(C(N)=O)c1` [Compound 7i, 4-(2-Undecyl-1H-benzo[d]imidazol-1-yl)thiophene-2-carboxamide], with 5.81 µM.
Same read-out and setting: the result for `CC(C)CCc1nc2ccccc2n1-c1csc(C(N)=O)c1` [Compound 7m, 4-(2-Isopentyl-1H-benzo[d]imidazol-1-yl)thiophene-2-carboxamide] reads 2.91 µM.
Regarding `C=C(C)CCc1nc2ccccc2n1-c1csc(C(N)=O)c1` [Compound 7n, 4-(2-(3-Methylbut-3-en-1-yl)-1H-benzo[d]imidazol-1-yl)thiophene-2-carboxamide], the EC50 is 3.24 µM.
